Reference: patent US8022206B2 (OSI Pharmaceuticals, LLC, priority 2008, dated 2011)

Legend:
RON (human) = RON (human) (Homo sapiens, UniProt Q04912); test: RON (human) AlphaScreen kinase assay, Km of ATP; format: biochemical; conditions: AlphaScreen, Km of ATP; read-out: RON biochemical IC50
Method in brief: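 Detection used PT66 AlphaScreen beads added in Tris pH 7.5/NaCl/EDTA/BSA buffer, read after 1 h incubation. Vehicle-only DMSO wells served as controls.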

MET (human) = MET (human) (Homo sapiens, UniProt P08581); test: MET (human) AlphaScreen kinase assay, Km of ATP; format: biochemical; conditions: AlphaScreen, Km of ATP; read-out: Met biochemical IC50
Chain of MET (human) (P08581 25-1390): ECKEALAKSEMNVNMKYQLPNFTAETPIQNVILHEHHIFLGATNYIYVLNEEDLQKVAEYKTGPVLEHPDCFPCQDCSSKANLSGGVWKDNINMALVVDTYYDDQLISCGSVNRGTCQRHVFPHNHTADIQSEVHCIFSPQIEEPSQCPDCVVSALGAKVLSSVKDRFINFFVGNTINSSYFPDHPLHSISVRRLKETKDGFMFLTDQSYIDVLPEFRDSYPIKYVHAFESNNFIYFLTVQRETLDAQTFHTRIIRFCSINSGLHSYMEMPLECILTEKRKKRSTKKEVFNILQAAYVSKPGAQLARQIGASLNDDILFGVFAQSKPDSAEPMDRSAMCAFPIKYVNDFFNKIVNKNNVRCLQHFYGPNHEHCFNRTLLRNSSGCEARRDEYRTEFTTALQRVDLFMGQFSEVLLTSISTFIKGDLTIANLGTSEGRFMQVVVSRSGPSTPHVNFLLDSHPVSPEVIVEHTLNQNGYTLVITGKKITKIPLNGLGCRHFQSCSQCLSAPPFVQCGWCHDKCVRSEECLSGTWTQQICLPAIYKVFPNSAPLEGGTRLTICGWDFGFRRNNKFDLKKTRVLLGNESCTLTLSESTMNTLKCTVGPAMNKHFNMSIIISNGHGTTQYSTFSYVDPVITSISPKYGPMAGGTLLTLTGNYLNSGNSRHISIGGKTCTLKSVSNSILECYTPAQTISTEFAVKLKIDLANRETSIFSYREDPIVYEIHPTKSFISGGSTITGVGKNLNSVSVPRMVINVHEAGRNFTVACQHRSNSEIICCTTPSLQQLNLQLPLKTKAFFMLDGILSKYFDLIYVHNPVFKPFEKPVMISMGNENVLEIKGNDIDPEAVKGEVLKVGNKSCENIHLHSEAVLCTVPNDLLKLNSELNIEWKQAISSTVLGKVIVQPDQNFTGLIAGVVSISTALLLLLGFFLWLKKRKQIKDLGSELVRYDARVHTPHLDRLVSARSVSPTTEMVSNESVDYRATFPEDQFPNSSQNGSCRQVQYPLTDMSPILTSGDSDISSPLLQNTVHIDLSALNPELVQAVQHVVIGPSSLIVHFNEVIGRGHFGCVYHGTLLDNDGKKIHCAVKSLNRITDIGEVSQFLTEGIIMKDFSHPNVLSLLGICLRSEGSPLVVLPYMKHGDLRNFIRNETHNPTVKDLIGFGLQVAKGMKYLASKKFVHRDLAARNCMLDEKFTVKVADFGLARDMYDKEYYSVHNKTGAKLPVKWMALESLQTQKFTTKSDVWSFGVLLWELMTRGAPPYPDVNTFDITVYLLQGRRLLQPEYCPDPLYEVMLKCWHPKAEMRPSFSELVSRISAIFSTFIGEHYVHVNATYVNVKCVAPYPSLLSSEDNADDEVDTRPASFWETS
Method in brief: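 Human MET at lot-optimised concentration in 50 mM Tris pH 7.4 buffer with 1 mM DTT, compound at 1% DMSO final; enzyme starts the reaction, 60 min at RT.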

Chain of RON (human) (Q04912 25-1400): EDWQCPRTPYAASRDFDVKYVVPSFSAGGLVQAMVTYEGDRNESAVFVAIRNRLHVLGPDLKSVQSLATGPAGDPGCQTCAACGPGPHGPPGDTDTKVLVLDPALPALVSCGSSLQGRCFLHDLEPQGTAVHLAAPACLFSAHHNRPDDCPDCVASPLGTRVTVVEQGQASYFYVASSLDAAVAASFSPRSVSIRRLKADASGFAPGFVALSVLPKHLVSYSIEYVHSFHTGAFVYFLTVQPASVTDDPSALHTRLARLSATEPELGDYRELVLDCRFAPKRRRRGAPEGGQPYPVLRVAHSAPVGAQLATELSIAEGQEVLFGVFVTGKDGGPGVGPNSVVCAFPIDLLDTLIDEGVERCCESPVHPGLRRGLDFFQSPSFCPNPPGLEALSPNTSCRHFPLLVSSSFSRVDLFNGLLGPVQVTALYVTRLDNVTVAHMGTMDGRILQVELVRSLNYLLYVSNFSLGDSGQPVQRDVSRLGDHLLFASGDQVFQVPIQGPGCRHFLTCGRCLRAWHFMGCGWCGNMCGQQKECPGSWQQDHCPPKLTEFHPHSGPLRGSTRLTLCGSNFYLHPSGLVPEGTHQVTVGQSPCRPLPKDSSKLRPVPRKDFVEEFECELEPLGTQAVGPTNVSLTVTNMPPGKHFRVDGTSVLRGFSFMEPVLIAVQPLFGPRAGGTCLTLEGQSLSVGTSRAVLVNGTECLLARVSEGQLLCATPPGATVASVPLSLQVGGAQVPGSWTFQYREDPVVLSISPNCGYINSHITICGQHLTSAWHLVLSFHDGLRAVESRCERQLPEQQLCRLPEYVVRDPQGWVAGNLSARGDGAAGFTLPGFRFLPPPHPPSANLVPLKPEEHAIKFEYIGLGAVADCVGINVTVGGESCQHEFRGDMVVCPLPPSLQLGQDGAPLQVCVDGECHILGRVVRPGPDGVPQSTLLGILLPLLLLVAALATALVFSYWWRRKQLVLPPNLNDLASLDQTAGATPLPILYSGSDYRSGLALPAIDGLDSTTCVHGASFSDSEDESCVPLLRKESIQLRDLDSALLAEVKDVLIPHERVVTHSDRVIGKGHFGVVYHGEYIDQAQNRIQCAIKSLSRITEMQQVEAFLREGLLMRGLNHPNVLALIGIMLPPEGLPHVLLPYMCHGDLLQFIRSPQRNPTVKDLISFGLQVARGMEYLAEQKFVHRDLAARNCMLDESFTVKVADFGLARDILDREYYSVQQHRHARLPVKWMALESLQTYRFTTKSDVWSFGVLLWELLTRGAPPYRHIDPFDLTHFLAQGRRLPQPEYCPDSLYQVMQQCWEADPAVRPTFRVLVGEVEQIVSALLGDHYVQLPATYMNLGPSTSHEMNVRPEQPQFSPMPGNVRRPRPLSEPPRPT

For `C[C@@H](Oc1c(N)ncc2c(-c3ccc(Cn4cccn4)cc3)coc12)c1c(Cl)ccc(F)c1Cl` [Example 110, 7-[(R)-1-(2,6-Dichloro-3-fluorophenyl)ethoxy]-3-(4-pyrazol-1-ylmethylphenyl)-furo[3,2-c]pyridin-6-ylamine], which IC50 (RON (human)) is on record?
Its IC50 is 500 to 5000 nM.

And the IC50 (MET (human))?
The IC50 was 500 to 5000 nM.

With `C[C@@H](Oc1c(N)ncc2c(-c3csc(CN4CCC(O)C4)c3)coc12)c1c(Cl)ccc(F)c1Cl` (stereo partly drawn) [Example 307, 1-(4-{6-Amino-7-[(R)-1-(2,6-dichloro-3-fluorophenyl)-ethoxy]furo[3,2-c]pyridin-3-yl}thiophen-2-ylmethyl)pyrrolidin-3-ol] as the molecule, how does the IC50 (RON (human)) read?
The IC50 was less than 500 nM.

What about the IC50 (MET (human)) of the same molecule?
Its IC50 is less than 500 nM.

Which IC50 (RON (human)) does the source give for `C[C@@H](Oc1c(N)ncc2c(-c3ccc(C=O)s3)coc12)c1c(Cl)ccc(F)c1Cl` [Example 210, 5-{6-Amino-7-[(R)-1-(2,6-dichloro-3-fluorophenyl)ethoxy]-furo[3,2-c]pyridin-3-yl}-thiophene-2-carbaldehyde] here?
Its IC50 is 500 to 5000 nM.

And the IC50 (MET (human))?
The IC50 was 500 to 5000 nM.

How did the IC50 (RON (human)) turn out when `C[C@@H](Oc1c(N)ncc2c(-c3cc(C(=O)N4CCN(C)CC4)cs3)coc12)c1c(Cl)ccc(F)c1Cl` [Example 332, (5-{6-Amino-7-[(R)-1-(2,6-dichloro-3-fluorophenyl)ethoxy]furo[3,2-c]pyridin-3-yl}thiophen-3-yl)-(4-methylpiperazin-1-yl)methanone] was run?
The IC50 was 5000 to 20000 nM.

What about the IC50 (MET (human)) of the same molecule?
The IC50 was 500 to 5000 nM.

What does the source list for `Nc1ncc2c(-c3cnn(C4CCNCC4)c3)coc2c1OC(CCc1ccccc1)c1c(Cl)ccc(F)c1Cl` (stereo not drawn) [Example 368, 7-[1-(2,6-Dichloro-3-fluorophenyl)-3-phenylpropoxy]-3-(1-piperidin-4-yl-1H-pyrazol-4-yl)furo[3,2-c]pyridin-6-ylamine]?
IC50 (RON (human)): 500 to 5000 nM; IC50 (MET (human)): 500 to 5000 nM

For `C[C@@H](Oc1c(N)ncc2c(Br)coc12)c1c(Cl)ccc(F)c1Cl` [Example 2, 3-Bromo-7-[(R)-1-(2,6-dichloro-3-fluorophenyl)-ethoxy]-furo[3,2-c]pyridin-6-ylamine], which IC50 (RON (human)) is on record?
Its IC50 is 5000 to 20000 nM.

And the IC50 (MET (human))?
The IC50 was 500 to 5000 nM.

What does the source list for `C[C@@H](Oc1c(N)ncc2c(-c3cccc(S(C)(=O)=O)c3)coc12)c1c(Cl)ccc(F)c1Cl` [Example 67, 7-[(R)-1-(2,6-Dichloro-3-fluor-phenyl)ethoxy]-3-(3-methane-sulfonylphenyl)-furo[3,2-c]pyridin-6-ylamine]?
IC50 (RON (human)): 500 to 5000 nM; IC50 (MET (human)): < 500 nM

With `COCCCNC(=O)c1ccc(-c2coc3c(O[C@H](C)c4c(Cl)ccc(F)c4Cl)c(N)ncc23)cc1` [Example 286, 4-{6-Amino-7-[(R)-1-(2,6-dichloro-3-fluorophenyl)ethoxy]furo[3,2-c]pyridin-3-yl}-N-(3-methoxypropyl)-benzamide] as the molecule, how does the IC50 (RON (human)) read?
Its IC50 is 500 to 5000 nM.

What about the IC50 (MET (human)) of the same molecule?
The IC50 was 500 to 5000 nM.

What does the source list for `C[C@@H](Oc1c(N)ncc2c(C(=O)NC3CCN(C(=O)OC(C)(C)C)CC3)coc12)c1c(Cl)ccc(F)c1Cl` [Example 181, 4-({6-Amino-7-[(R)-1-(2,6-dichloro-3-fluorophenyl)ethoxy]furo[3,2-c]pyridine-3-carbonyl}-amino)-piperidine-1-carboxylic acid tert-butyl ester]?
IC50 (RON (human)): 5000 to 20000 nM; IC50 (MET (human)): 500 to 5000 nM

Which results are given for `CC(Oc1c(N)ncc2c(-c3cnn(C4CCNCC4)c3)coc12)c1cccc(-c2ccn[nH]2)c1` (stereo not drawn) [Example 446]?
IC50 (RON (human)): < 500 nM; IC50 (MET (human)): 500 to 5000 nM

Which results are given for `C[C@@H](Oc1c(N)ncc2c(C3=CC(N)CCC3)coc12)c1c(Cl)ccc(F)c1Cl` (stereo partly drawn) [Example 146, 3-(3-Aminocyclohex-1-enyl)-7-[(R)-1-(2,6-dichloro-3-fluoro-phenyl)ethoxy]furo[3,2-c]pyridin-6-ylamine]?
IC50 (RON (human)): 500 to 5000 nM; IC50 (MET (human)): < 500 nM

Which results are given for `C[C@@H](Oc1c(N)ncc2c(C3=CCN(/C(N)=N\C#N)CC3)coc12)c1c(Cl)ccc(F)c1Cl` [Example 197, 4-{6-Amino-7-[(R)-1-(2,6-dichloro-3-fluorophenyl)ethoxy]-furo[3,2-c]pyridin-3-yl}-N-cyano-3,6-dihydro-2H-pyridine-1-carboxamidine]?
IC50 (RON (human)): 500 to 5000 nM; IC50 (MET (human)): 500 to 5000 nM

Which results are given for `Cc1cccc(C)c1C(C)Oc1c(N)ncc2c(-c3cnn(C4CCNCC4)c3)coc12` (stereo not drawn) [Example 402, 7-[1-(2,6-Dimethylphenyl)ethoxy]-3-(1-piperidin-4-yl-1H-pyrazol-4-yl)furo[3,2-c]pyridin-6-ylamine]?
IC50 (RON (human)): 500 to 5000 nM; IC50 (MET (human)): 500 to 5000 nM

`CC(Cc1c(Cl)cccc1Cl)Oc1c(N)ncc2c(-c3cnn(C4CCNCC4)c3)coc12` (stereo not drawn) [Example 417, 7-[2-(2,6-Dichlorophenyl)-1-methylethoxy]-3-(1-piperidin-4-yl-1H-pyrazol-4-yl)furo[3,2-c]pyridin-6-ylamine] was tested. Which IC50 (RON (human)) did it give?
The IC50 was 500 to 5000 nM.

What about the IC50 (MET (human)) of the same molecule?
The IC50 was 500 to 5000 nM.

How did the IC50 (RON (human)) turn out when `C[C@@H](Oc1c(N)ncc2c(C(=O)NCCCN(C)C)coc12)c1c(Cl)ccc(F)c1Cl` [Example 189, 6-Amino-7-[(R)-1-(2,6-dichloro-3-fluorophenyl)ethoxy]furo[3,2-c]pyridine-3-carboxylic acid (3-dimethylaminopropyl)amide] was run?
Its IC50 is 500 to 5000 nM.

What about the IC50 (MET (human)) of the same molecule?
The IC50 was less than 500 nM.

Which IC50 (RON (human)) does the source give for `C[C@@H](Oc1c(N)ncc2c(-c3ccc(C(N)=O)s3)coc12)c1c(Cl)ccc(F)c1Cl` [Example 209, 5-{6-Amino-7-[(R)-1-(2,6-dichloro-3-fluorophenyl)ethoxy]-furo[3,2-c]pyridin-3-yl}-thiophene-2-carboxamide] here?
Its IC50 is 500 to 5000 nM.

What about the IC50 (MET (human)) of the same molecule?
Its IC50 is 500 to 5000 nM.

How did the IC50 (RON (human)) turn out when `C[C@@H](Oc1c(N)ncc2c(C3=CCN(C(=O)[C@H]4CCCNC4)CC3)coc12)c1c(Cl)ccc(F)c1Cl` [Example 240, (4-{6-Amino-7-[(R)-1-(2,6-dichloro-3-fluorophenyl)ethoxy]-furo[3,2-c]pyridin-3-yl}-3,6-dihydro-2H-pyridin-1-yl)-(S)-piperidin-3-ylmethanone] was run?
Its IC50 is less than 500 nM.

What about the IC50 (MET (human)) of the same molecule?
The IC50 was less than 500 nM.

How did the IC50 (RON (human)) turn out when `N#CCc1ccccc1COc1c(N)ncc2c(-c3cnn(C4CCNCC4)c3)coc12` [Example 433, {2-[6-Amino-3-(1-piperidin-4-yl-1H-pyrazol-4-yl)furo[3,2-c]pyridin-7-yloxymethyl]phenyl}acetonitrile] was run?
The IC50 was 500 to 5000 nM.

And the IC50 (MET (human))?
The IC50 was 500 to 5000 nM.

With `C[C@@H](Oc1c(N)ncc2c(-c3nccs3)coc12)c1c(Cl)ccc(F)c1Cl` [Example 135, 7-[(R)-1-(2,6-Dichloro-3-fluorophenyl)-ethoxy]-3-thiazol-2-ylfuro[3,2-c]pyridin-6-ylamine] as the molecule, how does the IC50 (RON (human)) read?
The IC50 was 500 to 5000 nM.

And the IC50 (MET (human))?
The IC50 was 500 to 5000 nM.

`C[C@@H](Oc1c(N)ncc2c(-c3cnn(C4CCNCC4)c3)coc12)c1ccccc1Cl` [Example 335, 7-[(R)-1-(2-Chlorophenyl)ethoxy]-3-(1-piperidin-4-yl-1H-pyrazol-4-yl)-furo[3,2-c]pyridin-6-ylamine] was tested. Which IC50 (RON (human)) did it give?
The IC50 was 500 to 5000 nM.

What about the IC50 (MET (human)) of the same molecule?
Its IC50 is less than 500 nM.

For `C[C@@H](Oc1c(N)ncc2c(C(=O)NCC3CCN(C)CC3)coc12)c1c(Cl)ccc(F)c1Cl` [Example 185, 6-Amino-7-[(R)-1-(2,6-dichloro-3-fluorophenyl)ethoxy]furo[3,2-c]pyridine-3-carboxylic acid (1-methylpiperidin-4-ylmethyl)amide], which IC50 (RON (human)) is on record?
The IC50 was 500 to 5000 nM.

And the IC50 (MET (human))?
The IC50 was less than 500 nM.

How did the IC50 (RON (human)) turn out when `C[C@@H](Oc1c(N)ncc2c(-c3ccsc3)coc12)c1c(Cl)ccc(F)c1Cl` [Example 134, 7-[(R)-(2,6-Dichloro-3-fluorophenyl)ethoxy]-3-thiophen-3-ylfuro[3,2-c]pyridin-6-ylamine] was run?
Its IC50 is 500 to 5000 nM.

And the IC50 (MET (human))?
The IC50 was 500 to 5000 nM.

For `C[C@@H]1CN(C(=O)c2ccc(-c3coc4c(O[C@H](C)c5c(Cl)ccc(F)c5Cl)c(N)ncc34)cc2)C[C@H](C)O1` [Example 297, (4-{6-Amino-7-[(R)-1-(2,6-dichloro-3-fluorophenyl)ethoxy]-furo[3,2-c]pyridin-3-yl}phenyl)-(2,6-cis-dimethylmorpholin-4-yl)methanone], which IC50 (RON (human)) is on record?
The IC50 was 500 to 5000 nM.

And the IC50 (MET (human))?
Its IC50 is 500 to 5000 nM.

With `C[C@@H](Oc1c(N)ncc2ccoc12)c1nnc2ccc(-c3cnn(C)c3)nn12` [Example 470, 7-{(1R)-1-[6-(1-methyl-1H-pyrazol-4-yl) [1,2,4]triazolo[4,3-b]pyridazin-3-yl]ethoxy}furo[3,2-c]pyridin-6-amine] as the molecule, how does the IC50 (RON (human)) read?
Its IC50 is greater than 20000 nM.

And the IC50 (MET (human))?
The IC50 was 500 to 5000 nM.

`C[C@H](Cc1ccccc1)Oc1c(N)ncc2c(-c3cnn(C4CCNCC4)c3)coc12` [Example 415, 7-((R)-1-Methyl-2-phenylethoxy)-3-(1-piperidin-4-yl-1H-pyrazol-4-yl)furo[3,2-c]pyridin-6-ylamine] was tested. Which IC50 (RON (human)) did it give?
The IC50 was 500 to 5000 nM.

And the IC50 (MET (human))?
Its IC50 is 500 to 5000 nM.

What does the source list for `C[C@@H](N)C(=O)N1CC=C(c2coc3c(O[C@H](C)c4c(Cl)ccc(F)c4Cl)c(N)ncc23)CC1` [Example 252, (2R)-2-Amino-1-[4-{6-amino-7-[(1R)-1-(2,6-dichloro-3-fluoro-phenyl)ethoxy]furo[3,2-c]pyridin-3-yl}-3,6-dihydropyridin-1(2H)-yl]propan-1-one]?
IC50 (RON (human)): < 500 nM; IC50 (MET (human)): < 500 nM

With `C[C@@H](Oc1c(N)ncc2c(C3=CCS(=O)(=O)CC3)coc12)c1c(Cl)ccc(F)c1Cl` [Example 140, 7-[(1R)-1-(2,6-Dichloro-3-fluorophenyl)ethoxy]-3-(1,1-dioxido-3,6-dihydro-2H-thiopyran-4-yl)furo[3,2-c]pyridin-6-amine] as the molecule, how does the IC50 (RON (human)) read?
Its IC50 is 500 to 5000 nM.

What about the IC50 (MET (human)) of the same molecule?
Its IC50 is less than 500 nM.

`C[C@@H](Oc1c(N)ncc2c(C3=CCN(C=O)CC3)coc12)c1c(Cl)ccc(F)c1Cl` [Example 10, 4-{6-Amino-7-[(R)-1-(2,6-dichloro-3-fluorophenyl)-ethoxy]-furo[3,2-c]pyridin-3-yl}-3,6-dihydro-2H-pyridine-1-carbaldehyde] was tested. Which IC50 (RON (human)) did it give?
The IC50 was less than 500 nM.

What about the IC50 (MET (human)) of the same molecule?
Its IC50 is less than 500 nM.

With `C[C@@H](Oc1c(N)ncc2c(C3=CCN(C(=O)[C@@H]4CCCN4)CC3)coc12)c1c(Cl)ccc(F)c1Cl` [Example 22, (4-{6-Amino-7-[(R)-1-(2,6-dichloro-3-fluorophenyl)ethoxy]furo[3,2-c]pyridin-3-yl}-3,6-dihydro-2H-pyridin-1-yl)-(S)-pyrrolidin-2-ylmethanone] as the molecule, how does the IC50 (RON (human)) read?
The IC50 was less than 500 nM.

What about the IC50 (MET (human)) of the same molecule?
Its IC50 is less than 500 nM.

Which IC50 (RON (human)) does the source give for `C[C@@H](Oc1c(N)ncc2ccoc12)c1nnc2ccc(-c3ccccc3)nn12` [Example 471, 7-[(1R)-1-(6-phenyl[1,2,4]triazolo[4,3-b]pyridazin-3-yl)ethoxy]furo[3,2-c]pyridin-6-amine] here?
Its IC50 is greater than 20000 nM.

What about the IC50 (MET (human)) of the same molecule?
Its IC50 is 5000 to 20000 nM.
